Counter-ions that a name gives are not always drawn.

Results on 34 compounds are retold here after patent US4500525A, “Pharmacologically active pyrazolo/4,3-c/pyridines” (Gruppo Lepetit S.p.A., priority 1982, dated 1985).

The assay addresses α1 adrenoceptor. The assay can be described thus: displacement of ^3 H-prazosin specifically bound in rat brain homogenate (radioligand binding). Particulars: ^3 H Prazosin binding, Ki calculated from IC50, read-out: K1 (nM) ^3 H Prazosin. On the procedure:
The compounds of the invention were tested […] for their ability to compete with labelled ligands of α1, α2 -adrenergic,and dopaminergic receptors. Said tests were made essentially following:
(b) the method described by P. Greengrass et al., European Journal of Pharmacology, Vol. 55, pp. 323-326, (1979), which uses the specific displacement of ^3 H-prazosin specifically bound in rat brain homogenate, for the identification of substances interacting with the so called "α1 "adrenoceptor;
The above mentioned methods are radioligand binding assays and are based on the knowledge that many natural or synthetic physiologically active substances such as neurotransmitters, hormones, and others, specifically link to cellular receptors, generally of proteic nature. They are generally obtained from a tissue or organ of a suitable test-animal after isolation and homogenization of said tissue or organ.
The homogenate is twice centrifugated to separate and partially purify the receptorial fraction (synaptosomes).
The labelled substances employed are known to specifically bind their receptors, so the drug-receptor dissociation constants obtained for each test compound under standard conditions are a measure of their actual binding affinities. The validation of the above methods in predicting a possible pharmacological activity was carried out comparing the in vitro binding constants of a number of […] agonist or antagonist of the adrenergic or dopaminergic system with their in vivo activities. The α1 -adrenergic activity is essentially correlated with a peripheral vasodilatation. The α2 -adrenergic activity is essentially correlated with a hypotensive action of central origin, and the dopaminergic activity is correlated with a neuroleptic action. IC50 values, defined as the drug concentration that cause 50% inhibition of the specific ^3 H ligant binding, are observed by incubating from 5 to 7 different dilutions of the tested compound in duplicate or triplicate. Ki, inhibition constant, values are calculated from the following formula: [formula] wherein IC50 is defined as above, C is the concentration of the ^3 H ligand, and KD is the dissociation constant of the ^3 H ligand-receptor complex.
Consider `CN1CCc2c(c(-c3ccc(F)cc3)nn2CCCc2ccccc2)C1` [Example 139, 3-(4-fluorophenyl)-1-(3-phenylpropyl)-5-methyl-4,5,6,7-tetrahydro-1H-pyrazolo/4,3-c/pyridine, hydrochloride], for which the Ki was 20.6 nM. Consider `CN1CCc2c(c(-c3ccc(F)cc3)nn2Cc2ccccc2)C1` [Example 128, 3-(4-fluorophenyl)-5-methyl-1-phenylmethyl-4,5,6,7-tetrahydro-1H-pyrazolo/4,3-c/pyridine, methanesulfonate], for which the Ki was 21.2 nM.

On to `Cc1ccc(-c2nn(Cc3ccccc3)c3c2CN(C)CC3)cc1` [Example 147, 4,5,6,7-tetrahydro-5-methyl-3-(4-methylphenyl)-1-phenylmethyl-1H-pyrazolo/4,3-c/pyridine, methanesulfonate], for which the Ki is 20.1 nM. For `CN1CCc2c(c(-c3ccc(F)cc3)nn2Cc2ccc(Cl)c(Cl)c2)C1` [Example 136, 1-(3,4-dichlorophenylmethyl)-3-(4-fluorophenyl)-5-methyl-4,5,6,7-tetrahydro-1H-pyrazolo/4,3-c/pyridine], the Ki is 21.9 nM. The value for `CC(C)N1CCc2c(c(-c3ccc(F)cc3)nn2Cc2ccccc2)C1` [Example 162, 3-(4-fluorophenyl)-5-(2-methylethyl)-1-phenylmethyl-4,5,6,7-tetrahydro-1H-pyrazolo/4,3-c/pyridine] was 97.6 nM; that for `c1ccc(Cn2nc(-c3ccccc3)c3c2CCNC3)cc1` [Example 117, 4,5,6,7-tetrahydro-3-phenyl-1-phenylmethyl-1H-pyrazolo/4,3-c/pyridine, hydrochloride] was 38.6 nM; that for `CCCn1nc(-c2ccc(F)cc2)c2c1CCNC2` [Example 112, 3-(4-fluorophenyl)-1-n.propyl-4,5,6,7-tetrahydro-1H-pyrazolo/4,3-c/pyridine, methanesulfonate] was 24.2 nM. For `CC(c1ccccc1)n1nc(-c2ccc(F)cc2)c2c1CCNC2` (stereo not shown) [Example 116, 3-(4-fluorophenyl)-4,5,6,7-tetrahydro-1-(1-phenylethyl)-1H-pyrazolo/4,3-c/pyridine, methanesulfonate], the Ki is 7.24 nM.

For the compound `CCCCCn1nc(-c2ccc(F)cc2)c2c1CCNC2` [Example 122, 3-(4-fluorophenyl)-4,5,6,7-tetrahydro-1-n.pentyl-1H-pyrazolo/4,3-c/pyridine, methanesulfonate], the Ki is 8.7 nM. Take `Cc1ccc(-c2nn(Cc3ccccc3)c3c2CNCC3)cc1` [Example 119, 4,5,6,7-tetrahydro-3-(4-methylphenyl)-1-phenylmethyl-1H-pyrazolo/4,3-c/pyridine, hydrochloride]: the Ki is 5.86 nM.

As for `Fc1ccc(-c2nn(Cc3ccccc3Cl)c3c2CNCC3)cc1` [Example 114, 1-(2-chlorophenylmethyl)-3-(4-fluorophenyl)-4,5,6,7-tetrahydro-1H-pyrazolo/4,3-c/pyridine, methanesulfonate], the Ki was 17.3 nM. For the compound `Fc1ccc(-c2n[nH]c3c2CNCC3)cc1` [Example 19, 3-(4-fluorophenyl)-4,5,6,7-tetrahydro-1H-pyrazolo/4,3-c/pyridine], the Ki is 69.2 nM. Turning to `Clc1ccc(-c2nn(Cc3ccccc3)c3c2CNCC3)cc1` [Example 118, 3-(4-chlorophenyl)-4,5,6,7-tetrahydro-1-phenylmethyl)-1H-pyrazolo/4,3-c/pyridine, hydrochloride], the Ki was 14.5 nM.

With `CN1CCc2c(c(-c3ccc(F)cc3)nn2CCc2ccccc2)C1` [Example 138, 3-(4-fluorophenyl)-1-(2-phenylethyl)-5-methyl-4,5,6,7-tetrahydro-1H-pyrazolo/4,3-c/pyridine], the Ki was 40.3 nM.

Take `COc1ccc(Cn2nc(-c3ccc(F)cc3)c3c2CCNC3)cc1` [Example 105, 3-(4-fluorophenyl)-1-(4-methoxyphenylmethyl)-4,5,6,7-tetrahydro-1H-pyrazolo/4,3-c/pyridine, hydrochloride]: the Ki was 6.23 nM.

For `COc1ccc(Cn2nc(-c3ccc(F)cc3)c3c2CCN(C)C3)cc1` [Example 133, 3-(4-fluorophenyl)-1-(4-methoxyphenylmethyl)-5-methyl-4,5,6,7-tetrahydro-1H-pyrazolo/4,3-c/pyridine, hydrochloride], the Ki is 12.4 nM.

On to `Fc1ccc(-c2nn(CCc3ccccc3)c3c2CNCC3)cc1` [Example 110, 3-(4-fluorophenyl)-1-(2-phenylethyl)-4,5,6,7-tetrahydro-1H-pyrazolo/4,3-c/pyridine, methanesulfonate], for which the Ki is 40.3 nM. Regarding `CN1CCc2c(c(-c3ccc(Cl)cc3)nn2Cc2ccccc2)C1` [Example 146, 3-(4-chlorophenyl)-4,5,6,7-tetrahydro-5-methyl-1-phenylmethyl-1H-pyrazolo/4,3-c/pyridine, methanesulfonate], the Ki is 30.9 nM.

With `CN1CCc2c(c(-c3ccc(F)cc3)nn2Cc2ccc(Cl)cc2)C1` [Example 132, 1-(4-chlorophenylmethyl)-3-(4-fluorophenyl)-5-methyl-4,5,6,7-tetrahydro-1H-pyrazolo/4,3-c/pyridine, methanesulfonate], the Ki is 20.8 nM.

As to `CN1CCc2c(c(-c3ccccc3)nn2Cc2ccccc2)C1` [Example 145, 4,5,6,7-tetrahydro-5-methyl-3-phenyl-1-phenylmethyl-1H-pyrazolo/4,3-c/pyridine, methanesulfonate], the Ki is 49.4 nM. Consider `CCCCn1nc(-c2ccc(F)cc2)c2c1CCN(C)C2` [Example 141, 3-(4-fluorophenyl)-1-n.butyl-5-methyl-4,5,6,7-tetrahydro-1H-pyrazolo/4,3-c/pyridine, methanesulfonate], for which the Ki was 32.8 nM. Regarding `Fc1ccc(-c2nn(Cc3ccc(Cl)cc3)c3c2CNCC3)cc1` [Example 103, 1-(4-chlorophenylmethyl)-3-(4-fluorophenyl)-4,5,6,7-tetrahydro-1H-pyrazolo/4,3-c/pyridine, hydrochloride], the Ki was 11.1 nM. The value for `CN1CCc2c(c(-c3ccc(F)cc3)nn2Cc2ccccc2Cl)C1` [Example 142, 1-(2-chlorophenylmethyl)-3-(4-fluorophenyl)-5-methyl-4,5,6,7-tetrahydro-1H-pyrazolo/4,3-c/pyridine, methanesulfonate] was 36.3 nM; that for `CCCCn1nc(-c2ccc(F)cc2)c2c1CCNC2` [Example 113, 3-(4-fluorophenyl)-1-n.butyl-4,5,6,7-tetrahydro-1H-pyrazolo/4,3-c/pyridine, methanesulfonate] was 17.3 nM. Take `Fc1ccc(-c2nn(Cc3ccc(Cl)c(Cl)c3)c3c2CNCC3)cc1` [Example 108, 1-(3,4-dichlorophenylmethyl)-3-(4-fluorophenyl)-4,5,6,7-tetrahydro-1H-pyrazolo/4,3-c/pyridine, hydrochloride]: the Ki is 7.48 nM.

For `CCCCCCn1nc(-c2ccc(F)cc2)c2c1CCN(C)C2` [Example 151, 3-(4-fluorophenyl)-4,5,6,7-tetrahydro-1-n.hexyl-5-methyl-1H-pyrazolo/4,3-c/pyridine, methanesulfonate], the Ki is 15.2 nM. For the compound `CCCn1nc(-c2ccc(F)cc2)c2c1CCN(C)C2` [Example 140, 3-(4-fluorophenyl)-1-n.propyl-5-methyl-4,5,6,7-tetrahydro-1H-pyrazolo/4,3-c/pyridine, methanesulfonate], the Ki was 73.5 nM.

As for `CCCCCn1nc(-c2ccc(F)cc2)c2c1CCN(C)C2` [Example 150, 3-(4-fluorophenyl))-4,5,6,7-tetrahydro-5-methyl-1-n.pentyl-1H-pyrazolo/4,3-c/pyridine, methanesulfonate], the Ki is 18.3 nM. Then `CCCCCCn1nc(-c2ccc(F)cc2)c2c1CCNC2` [Example 123, 3-(4-fluorophenyl)-4,5,6,7-tetrahydro-1-n.hexyl-1H-pyrazolo/4,3-c/pyridine, methanesulfonate], with 13 nM; and `CC(c1ccccc1)n1nc(-c2ccc(F)cc2)c2c1CCN(C)C2` (stereo not shown) [Example 144, 3-(4-fluorophenyl)-4,5,6,7-tetrahydro-5-methyl-1-(1-phenylethyl)-1H-pyrazolo/4,3-c/pyridine, hydrochloride], with 8.14 nM. Turning to `Cc1ccc(-c2n[nH]c3c2CNCC3)cc1` [Example 32, 3-(4-methylphenyl)-4,5,6,7-tetrahydro-1H-pyrazolo/4,3-c/pyridine, dihydrochloride], the Ki was 92.2 nM. Regarding `CC(C)n1nc(-c2ccc(F)cc2)c2c1CCNC2` [Example 95, 3-(4-fluorophenyl)-1-(2-methylethyl)-4,5,6,7-tetrahydro-1H-pyrazolo/4,3-c/pyridine, methanesulfonate], the Ki is 32.2 nM.

Take `Cn1nc(-c2ccccc2)c2c1CCNC2` [Example 96, 1-methyl-3-phenyl-4,5,6,7-tetrahydro-1H-pyrazolo/4,3-c/pyridine, methanesu lfonate]: the Ki is 52 nM.

With `Fc1ccc(-c2nn(Cc3ccccc3)c3c2CN(C2CCCC2)CC3)cc1` [Example 163, 5-cyclopentyl-3-(4-fluorophenyl)-1-phenylmethyl-4,5,6,7-tetrahydro-1H-pyrazolo/4,3-c/pyridine, hydrochloride], the Ki is 42.4 nM.
